# Laboratory results as given in patent EP1143981B1, “USE OF N-GLYCOLNEURAMINIC ACID AND ITS DERIVATIVES FOR THE MANUFACTURE OF A MEDICAMENT FOR THE TREATMENT OF HIV INFECTIONS” (Glukor, Inc., priority 1998, dated 2000).
# Where two headings read alike, the source gives them in different places.
# Assays:
# Format in all cases: cell-based
# HIV-1 MN = tested on: HIV-1 MN
# Procedure: Test groups included uninfected PBMCs, infected PBMCs with no N-glycolylneuraminic acid, and infected PBMCs plus N-glycolylneuraminic acid. […] Excess virus was removed by washing the cells with PBS one time then the cells were exposed to N-glycolylneuraminic acid. P24 output was measured using the DuPont P24 assay kit (optical density (OD) in Table 15). Syncytia formation was examined as well as cytopathic effects (CPE). […] Sample #7 (p24 123x10^6 pg HIV-1P24/ml) was excluded from the mean P24 output calculation due to a sampling error. […]
# HIV-1 IIIB = assay: HIV-1 P24 output, test solutions added post infection; details: Human immunodeficiency virus 1, IIIB; endpoint of the inhibition; read-out: lowest effective concentration for inhibition of HIV p24 output
# Procedure: In addition, a similar experiment was performed, except that test solutions were added post infection, at the time of plating into the triplicate wells.
# PBMCs = details: human
# Procedure: Fresh human PBMCs were isolated from voluntary Red Cross donors, seronegative for HIV and HBV. Leukophoresed blood was diluted 1:1 with Dulbecco's PBS, layered over 14 mL of Ficoll-Hypaque density gradient in a 50mL centrifuge and then centrifuged for 30 minutes at 600 x g. Banded PBMCs were gently aspirated from the resulting interface and subsequently washed twice with PBS by low speed centrifugation. […] PBMCs were maintained in this medium at a concentration of 1-2 x 10^6 cells/mL with bi-weekly medium changes until used in the assay. […]
# Tetrazolium dye staining of screening plates: After 6 days of incubation (37°C with 5% CO2), the test plates were analyzed by staining with the tetrazolium dye XTT (2,3-b (2-methoxy-4-nitro-5-sulfophenyl)-2H-tetrazolium -5-carboxanilide). XTT-tetrazolium is metabolized by mitochondrial enzymes of metabolically active cells to a soluble formazan product, allowing the rapid quantitative analysis of the inhibition of HIV-induced cell killing by anti-HIV compounds. […] Plates were sealed with adhesive plate sealers and inverted several times to mix the soluble formazan product and the plate was read spectrophotometrically at 450nm with a Molecular Devices Vmax plate reader. Indices such as %CPE Reduction (cytopathic effects), %Cell Viability, IC25, IC50, IC95, TC25, TC50, and TC95 and other indices were calculated. […]
compound,measurement,setting,value
O=C(CO)N[C@H]1[C@H]([C@H](O)[C@H](O)CO)OC(O)(C(=O)O)C[C@@H]1O (stereo partly shown) [N-glycolylneuraminic acid],CPE,HIV-1 MN; Neu5Gc dilution 1:2,negative
same,O.D.,HIV-1 MN; Neu5Gc dilution 1:2,0.017
same,P-24,HIV-1 MN; Neu5Gc dilution 1:2,320 picograms HIV-1 p24 per mL
same,Syncytia,HIV-1 MN; Neu5Gc dilution 1:2,negative
same,CPE,HIV-1 MN; Neu5Gc dilution 1:4,negative
same,O.D.,HIV-1 MN; Neu5Gc dilution 1:4,0.043
same,P-24,HIV-1 MN; Neu5Gc dilution 1:4,922 picograms HIV-1 p24 per mL
same,Syncytia,HIV-1 MN; Neu5Gc dilution 1:4,negative
same,CPE,HIV-1 MN; Neu5Gc dilution 1:8,negative
same,O.D.,HIV-1 MN; Neu5Gc dilution 1:8,0.057
same,P-24,HIV-1 MN; Neu5Gc dilution 1:8,871 picograms HIV-1 p24 per mL
same,Syncytia,HIV-1 MN; Neu5Gc dilution 1:8,negative
same,CPE,HIV-1 MN; Neu5Gc dilution 1:16,negative
same,O.D.,HIV-1 MN; Neu5Gc dilution 1:16,0.061
same,P-24,HIV-1 MN; Neu5Gc dilution 1:16,824 picograms HIV-1 p24 per mL
same,Syncytia,HIV-1 MN; Neu5Gc dilution 1:16,negative
same,CPE,HIV-1 MN; Neu5Gc dilution 1:32,negative
same,O.D.,HIV-1 MN; Neu5Gc dilution 1:32,0.012
same,P-24,HIV-1 MN; Neu5Gc dilution 1:32,265 picograms HIV-1 p24 per mL
same,Syncytia,HIV-1 MN; Neu5Gc dilution 1:32,negative
same,CPE,HIV-1 MN; Neu5Gc dilution 1:64,negative
same,O.D.,HIV-1 MN; Neu5Gc dilution 1:64,0.041
same,P-24,HIV-1 MN; Neu5Gc dilution 1:64,865 picograms HIV-1 p24 per mL
same,Syncytia,HIV-1 MN; Neu5Gc dilution 1:64,negative
same,cell viability,"HIV-1 MN; human, pbmcs",25%
same,Mean p24 output,HIV-1 MN; samples treated with N-glycolylneuraminic acid (corrected for dilution factor),624± 326 pg HIV-1P24/ml
same,minimal effective concentration,HIV-1 IIIB,0.003 µg/mL
same,CC50,PBMCs,> 1000 µM
